We go through 24 compounds from US8263606B2 (Xenon Pharmaceuticals Inc., priority 2008, dated 2012).

For one data set, the system named is sodium channel. The data set can be described thus: Guanidine influx assay (14C-guanidine radiotracer flux, in vitro). Type of data set: cell-based, human or rat. The following applies: guanidine influx assay using a known cell line that expresses a sodium channel. Summed up:
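Test agents at half-step dilutions around 1 μM are added to plated cells in low-sodium HEPES buffer, then an aconitine/14C-guanidine mixture; after ambient-temperature incubation, cells are washed and counted. IC50 comes from a sigmoidal fit.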

A further data set addresses CYP3A4 (Homo sapiens, UniProt P08684). The data set can be described thus: Cytochrome P450 (CYP450) Inhibition Assay, CYP3A4 (Vivid fluorescence, BOMCC substrate). To be noted: human, P450 Baculosomes (recombinant CYP3A4), probe BOMCC (Vivid substrate).

CYP3A4, sequence (P08684 whole entry): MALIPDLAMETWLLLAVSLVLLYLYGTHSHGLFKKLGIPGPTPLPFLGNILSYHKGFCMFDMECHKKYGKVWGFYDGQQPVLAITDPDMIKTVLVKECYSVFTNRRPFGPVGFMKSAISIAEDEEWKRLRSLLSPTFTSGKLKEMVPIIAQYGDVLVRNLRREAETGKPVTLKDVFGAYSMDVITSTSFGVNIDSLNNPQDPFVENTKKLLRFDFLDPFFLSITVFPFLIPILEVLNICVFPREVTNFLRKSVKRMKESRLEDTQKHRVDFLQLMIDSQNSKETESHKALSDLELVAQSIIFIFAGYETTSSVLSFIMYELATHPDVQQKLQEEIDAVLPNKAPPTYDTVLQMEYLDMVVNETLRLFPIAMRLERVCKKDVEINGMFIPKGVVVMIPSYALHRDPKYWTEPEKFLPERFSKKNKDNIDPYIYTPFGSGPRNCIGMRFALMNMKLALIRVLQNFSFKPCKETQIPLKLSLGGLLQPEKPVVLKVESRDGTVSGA

In the case of `Cl.O=C1N(CCCNCC(F)(F)F)c2ccccc2C12COc1cc3c(cc12)CCO3` (stereo not drawn) [Example 15.3, 1′-{3-[(2,2,2-trifluoroethyl)amino]propyl}-5,6-dihydrospiro[benzo[1,2-b:5,4-b′]difuran-3,3′-indol]-2′(1′H)-one hydrochloride], the melting point (as a rule, the temperature, or range, at which the solid turns liquid) was 124 to 126 °C. Also, the half-maximal inhibitory concentration (IC50) (usually the concentration needed to halve the response being measured) in the data set on sodium channel was in the range of 100 to 1000 nM. Moreover, the inhibition (in general, the relative decrease from the control value, in per cent) at 10 µM at CYP3A4 was more than 50%.
The corresponding values for `Cl.N#CCCNCCCN1C(=O)C2(COc3cc4c(cc32)CCO4)c2ccccc21` (stereo not drawn) [Example 15.4, 3-{[3-(2′-oxo-5,6-dihydrospiro[benzo[1,2-b:5,4-b′]difuran-3,3′-indol]-1′(2′H)-yl)propyl]amino}propanenitrile hydrochloride] are 214 to 216 °C, 100 to 1000 nM and more than 50%.
Compound `CN(C)c1ccc(-c2cccc3c2C2(COc4cc5c(cc42)CCO5)C(=O)N3Cc2ccc(C(F)(F)F)o2)cn1` (stereo not drawn) [Example 16.11, 4′-[6-(dimethylamino)pyridin-3-yl]-1′-{[5-(trifluoromethyl)furan-2-yl]methyl}-5,6-dihydrospiro[benzo[1,2-b:5,4-b′]difuran-3,3′-indol]-2′(1′H)-one] registered a melting point of 223 to 225 °C. Besides, the half-maximal inhibitory concentration (IC50) in the data set on sodium channel fell in the range of 100 to 1000 nM. At CYP3A4, the inhibition at 10 µM was more than 50%.
The corresponding values for `CN(C)c1ccc(-c2cccc3c2C2(COc4cc5c(cc42)OCO5)C(=O)N3Cc2ccc(Cl)s2)cn1` (stereo not drawn) [Example 16.12, 1′-[(5-chloro-2-thienyl)methyl]-4′-[6-(dimethylamino)pyridin-3-yl]spiro[furo[2,3-f][1,3]benzodioxole-7,3′-indol]-2′(1′H)-one] are 215 to 218 °C, 100 to 1000 nM and more than 50%.
The corresponding values for `O=C1N(Cc2ccc(Cl)s2)c2cccc(-c3ccoc3)c2C12COc1cc3c(cc12)OCO3` (stereo not drawn) [Example 16.13, 1′-[(5-chloro-2-thienyl)methyl]-4′-(3-furyl)spiro[furo[2,3-f][1,3]benzodioxole-7,3′-indol]-2′(1′1-1)-one] are 166 to 168 °C, 100 to 1000 nM and more than 50%.
In the case of `CN(C)c1ccc(-c2cccc3c2C2(COc4cc5c(cc42)OCO5)C(=O)N3)cn1` (stereo not drawn) [Example 16.14, 4′-[6-(dimethylamino)pyridin-3-yl]spiro[furo[2,3-f][1,3]benzodioxole-7,3′-indol]-2′(1′H)-one], the melting point is more than 245 °C. The 50% inhibitory concentration (IC50) in the data set with sodium channel lay in the range of 1000 to 10000 nM. Moreover, the inhibition at 10 µM on CYP3A4 was more than 50%.
`CN(C)c1ccc(-c2cccc3c2C2(COc4cc5c(cc42)OCCO5)C(=O)N3Cc2ccccn2)cn1` (stereo not drawn) [Example 16.59, 4′-(6-(dimethylamino)pyridin-3-yl)-1′-(pyridin-2-ylmethyl)-3,7-dihydro-2H-spiro[benzofuro[5,6-b][1,4]dioxine-8,3′-indolin]-2′-one] came in with a melting point of 187 to 188 °C. Also, the IC50 in the data set with sodium channel is 100 to 1000 nM. Also, the inhibition at 10 µM on CYP3A4 was more than 50%.
`COc1ccc(-c2cccc3c2C2(COc4cc5c(cc42)OCCO5)C(=O)N3Cc2ccccn2)cc1` (stereo not drawn) [Example 16.60, 4′-(4-methoxyphenyl)-1′-(pyridin-2-ylmethyl)-3,7-dihydro-2H-spiro[benzofuro[5,6-b][1,4]dioxine-8,3′-indolin]-2′-one] registered a melting point of 205 to 206 °C. For the same compound, the 50% inhibitory concentration (IC50) with sodium channel was in the range of 1 to 100 nM. Besides, the inhibition at 10 µM at CYP3A4 is more than 50%.
Regarding `CN1C(=O)[C@@]2(COc3cc4c(cc32)OCO4)c2c(-c3ccoc3)cccc21` [Example 16.61, (7S)-4′-furan-3-yl-1′-methylspiro[furo[2,3-f][1,3]benzodioxole-7,3′-indol]-2′(1′H)-one], the melting point is 144 to 145 °C. For the same compound, the half-inhibitory concentration (IC50) in the data set on sodium channel lay within 1 to 100 nM. The inhibition at 10 µM on CYP3A4 was more than 50%.
The like results for `CN1C(=O)[C@]2(COc3cc4c(cc32)OCO4)c2c(-c3ccoc3)cccc21` [Example 16.62, (7R)-4′-furan-3-yl-1′-methylspiro[furo[2,3-f][1,3]benzodioxole-7,3′-indol]-2′(1′H)-one] were, in that order, 144 to 145 °C, 100 to 1000 nM and more than 50%.
The corresponding values for `COc1ccc(-c2ccc3c(c2)C2(CO3)C(=O)N(Cc3ccc(Cl)s3)c3ccccc32)cn1` (stereo not drawn) [Example 16.88, 1′-[(5-chloro-2-thienyl)methyl]-5-(6-methoxypyridin-3-yl)spiro[1-benzofuran-3,3′-indol]-2′(1′H)-one] are 60 to 62 °C, 1000 to 10000 nM and more than 50%.
Take `O=C1N(Cc2ccc(O)cc2)c2ccccc2C12COc1cc3c(cc12)CCO3` (stereo not drawn) [Example 17, 1′-(4-hydroxybenzyl)-5,6-dihydrospiro[benzo[1,2-b:5,4-b′]difuran-3,3′-indol]-2′(1′H)-one]: the melting point lay in the range of 226 to 227 °C. In addition, the IC50 with sodium channel lay in the range of 1 to 100 nM. In addition, the inhibition at 10 µM on CYP3A4 was more than 50%.
The compound `O=C1N(Cc2ccc(O)cc2)c2ccccc2C12COc1cc3c(cc12)OCCO3` (stereo not drawn) [Example 17.1, 1′-(4-hydroxybenzyl)-2,3-dihydrospiro[furo[2,3-g][1,4]benzodioxine-8,3′-indol]-2′(1′H)-one] displayed a melting point of 243 to 244 °C. In the data set on sodium channel, the concentration for half-maximal inhibition (IC50) lay in the range of 1 to 100 nM. The inhibition at 10 µM at CYP3A4 is more than 50%.
The like results for `O=C1N(CCCO)c2ccccc2C12COc1cc3c(cc12)OCCO3` (stereo not drawn) [Example 17.2, 1′-(3-hydroxypropyl)-2,3-dihydrospiro[furo[2,3-g][1,4]benzodioxine-8,3′-indol]-2′(1′H)-one] were, in that order, 157 to 158 °C, 1 to 100 nM and less than 50%.
The like results for `CCOC(=O)N1C(=O)C2(COc3cc4c(cc32)OCCO4)c2ccccc21` (stereo not drawn) [Example 18, ethyl 2′-oxo-2,3-dihydrospiro[furo[2,3-g][1,4]benzodioxine-8,3′-indole]-1′(2′H)-carboxylate] were, in that order, 198 to 200 °C, 1 to 100 nM and less than 50%.
The like results for `CC(C)(C)OC(=O)N1C(=O)C2(COc3cc4c(cc32)OCO4)c2c(Br)cccc21` (stereo not drawn) [Example 18.1, tert-butyl 4′-bromo-2′-oxospiro[furo[2,3-f][1,3]benzodioxole-7,3′-indole]-1′(2′H)-carboxylate] were, in that order, 154 to 156 °C, 1 to 100 nM and more than 50%.
In turn, `CC(C)(C)OC(=O)N1C(=O)C2(COc3cc4c(cc32)OCCO4)c2ccccc21` (stereo not drawn) [Example 18.2, tert-butyl 2′-oxo-2,3-dihydrospiro[furo[2,3-g][1,4]benzodioxine-8,3′-indole]-1′(2′H)-carboxylate] yielded a melting point of 171 to 172 °C. Further, the IC50 with sodium channel lay within 100 to 1000 nM. For the same compound, the inhibition at 10 µM on CYP3A4 is less than 50%.
The corresponding values for `CC1(C)O[C@H]2[C@@H](O1)[C@@H](CN1C(=O)C3(COc4cc5c(cc43)OCCO5)c3ccccc31)O[C@@H]1OC(C)(C)O[C@@H]12` (stereo partly drawn) [Example 19, 1′-{[(3aR,5R,5aS,8aS,8bR)-2,2,7,7-tetramethyltetrahydro-3aH-bis[1,3]dioxolo[4,5-b:4′,5′-d]pyran-5-yl]methyl}-2,3-dihydrospiro[furo[2,3-g][1,4]benzodioxine-8,3′-indol]-2′(1′H)-one] are 112 to 118 °C, 1000 to 10000 nM and less than 50%.
Take `O=C1N(C[C@H]2OC(O)[C@H](O)[C@@H](O)[C@H]2O)c2ccccc2C12COc1cc3c(cc12)OCCO3` (stereo partly drawn) [Example 20, 6-deoxy-6-(2′-oxo-2,3-dihydrospiro[furo[2,3-g][1,4]benzodioxine-8,3′-indol]-1′(2′H)-yl)-D-galactopyranose]: the melting point lay within 122 to 126 °C. The IC50 in the data set on sodium channel was in the range of 1000 to 10000 nM. Further, on CYP3A4, the inhibition at 10 µM is less than 50%.
The like results for `O=C1N(C2CC2)c2ccccc2C12COc1cc3c(cc12)OCCO3` (stereo not drawn) [Example 21, 1′-cyclopropyl-2,3-dihydrospiro[furo[2,3-g][1,4]benzodioxine-8,3′-indol]-2′(1′H)-one] were, in that order, 227 to 228 °C, 1 to 100 nM and less than 50%.
The corresponding values for `CC(=O)N1C(=O)C2(COc3cc4c(cc32)OCCO4)c2ccccc21` (stereo not drawn) [Example 22, 1′-acetyl-2,3-dihydrospiro[furo[2,3-g][1,4]benzodioxine-8,3′-indol]-2′(1′H)-one] are 236 to 238 °C, 1 to 100 nM and less than 50%.
The corresponding values for `O=C1N(Cc2cc(C(F)(F)F)ccn2)c2ccccc2C12COc1cc3c(cc12)OCCO3` (stereo not drawn) [Example 23, 1′-{[4-(trifluoromethyl)pyridin-2-yl]methyl}-2,3-dihydrospiro[furo[2,3-g][1,4]benzodioxine-8,3′-indol]-2′(1′H)-one] are 154 to 155 °C, 1 to 100 nM and less than 50%.
`Cc1noc(-c2cccc(CN3C(=O)C4(COc5cc6c(cc54)OCCO6)c4ccccc43)c2)n1` (stereo not drawn) [Example 28, 1′-[3-(3-methyl-1,2,4-oxadiazol-5-yl)benzyl]-2,3-dihydrospiro[furo[2,3-g][1,4]benzodioxine-8,3′-indol]-2′(1′H)-one] had a melting point of 80 to 89 °C. The IC50 with sodium channel is 1 to 100 nM. At CYP3A4, the inhibition at 10 µM was less than 50%.
The like results for `Cc1noc(-c2ccc(CN3C(=O)C4(COc5cc6c(cc54)OCCO6)c4ccccc43)cc2)n1` (stereo not drawn) [Example 30, 1′-[4(3-methyl-1,2,4-oxadiazol-5-yl)benzyl]-2,3-dihydrospiro[furo[2,3-g][1,4]benzodioxine-8,3′-indol]-2′(1′H)-one] were, in that order, 177 to 178 °C, 1 to 100 nM and less than 50%.
